According to US8574563B2 (Bristol-Myers Squibb Company, priority 2006, dated 2013):
pEC50: −log10 of the molar value.

Tested on: HCV 1b-377-neo replicon cells
Test: HCV replicon assay, HCV 1b-377-neo replicon cells (1b FRET)
Type: cell-based, Hepatitis C virus genotype 1b
Conditions: Hepatitis C virus, HCV 1b-377-neo replicon cells; HCV 1b genotype; read-out: EC50 range against HCV 1b (Table 2, Range)
Summary of the method: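 FRET-based replicon assay in HCV 1b-377-neo cells, including a comparison line carrying the NS5A Y2065H mutation that confers resistance to a reference compound.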

COC(=O)N[C@@H](C(=O)N1CCC[C@H]1c1nc(-c2cnc(-c3ccc(-c4cnc([C@@H]5CCCN5C(=O)[C@H](NC(=O)OC)c5ccccc5)[nH]4)c(F)c3)nc2)c[nH]1)c1ccccc1 [Example D69, methyl ((1R)-2-((2S)-2-(5-(2-(3-fluoro-4-(2-((2S)-1-((2R)-2-((methoxycarbonyl)amino)-2-phenylacetyl)-2-pyrrolidinyl)-1H-imidazol-5-yl)phenyl)-5-pyrimidinyl)-1H-imidazol-2-yl)-1-pyrrolidinyl)-2-oxo-1-phenylethyl)carbamate]
pEC50: 9.00 to 12.00

COC(=O)N[C@@H](C)C(=O)N1CCC[C@H]1c1ncc(-c2ccc(-c3ccc(-c4cnc([C@@H]5CCCN5C(=O)[C@@H]5CC(=O)N5)[nH]4)cc3)cc2)[nH]1 [cj-48]
pEC50: 6.00 to 7.00

COC(=O)N[C@@H](C)C(=O)N1CCC[C@H]1c1ncc(-c2ccc(-c3ccc(-c4cnc([C@@H]5CCCN5C(=O)[C@H](Cc5cscn5)NC(=O)OC)[nH]4)cc3)cc2)[nH]1 [cj-81, methyl ((1S)-2-((2S)-2-(5-(4′-(2-((2S)-1-(N-(methoxycarbonyl)-L-alanyl)-2-pyrrolidinyl)-1H-imidazol-5-yl)-4-biphenylyl)-1H-imidazol-2-yl)-1-pyrrolidinyl)-2-oxo-1-(1,3-thiazol-4-ylmethyl)ethyl)carbamate]
pEC50: 9.00 to 12.00

COC(=O)N[C@H](C(=O)N1CCC[C@H]1c1nc(-c2ccc(-c3ccc(-c4cnc([C@@H]5CCCN5C(=O)[C@H](NC(=O)OC)c5ccccc5)[nH]4)c(F)c3)cc2F)c[nH]1)C1CC1 [Example D66, methyl ((1S)-1-cyclopropyl-2-((2S)-2-(5-(3,3′-difluoro-4′-(2-((2S)-1-((2R)-2-((methoxycarbonyl)amino)-2-phenylacetyl)-2-pyrrolidinyl)-1H-imidazol-5-yl)-4-biphenylyl)-1H-imidazol-2-yl)-1-pyrrolidinyl)-2-oxoethyl)carbamate]
pEC50: 9.00 to 12.00

CCOC(=O)c1nc([C@@H]2CCCN2C(=O)[C@@H](c2ccccc2)N(C)C)[nH]c1-c1ccc(-c2ccc(-c3cnc([C@@H]4CCCN4C(=O)[C@@H](c4ccccc4)N(C)C)[nH]3)cc2)cc1 [Example J20, ethyl 2-((2S)-l-((2R)-2-(dimethylamino)-2-phenylacetyl)-2-pyrrolidinyl)-5-(4-(2-((2S)-1-((2R)-2-(dimethylamino)-2-phenylacetyl)-2-pyrrolidinyl)-1H-imidazol-5-yl)-4-biphenylyl)-1H-imidazole-4-carboxylate]
pEC50: 9.00 to 12.00

CCN(CC)[C@@H](C(=O)N1CCC[C@H]1c1ncc(-c2ccc(-c3ccc(-c4cnc([C@@H]5CCCN5C(=O)[C@H]5CC[C@@H](N(CC)CC)CC5)[nH]4)cc3)cc2)[nH]1)c1ccccc1 [cj-73, cis-4-(((2S)-2-(5-(4′-(2-((2S)-1-((2R)-2-(diethylamino)-2-phenylacetyl)-2-pyrrolidinyl)-1H-imidazol-5-yl)-4-biphenylyl)-1H-imidazol-2-yl)-1-pyrrolidinyl)carbonyl)-N,N-diethylcyclohexanamine]
pEC50: 9.00 to 12.00

COC(=O)N[C@@H]1CC[C@H](C(=O)N2CCC[C@H]2c2ncc(-c3ccc(-c4ccc(-c5cnc([C@@H]6CCCN6C(=O)[C@@H](NC(=O)OC)[C@@H](C)OC)[nH]5)cc4)cc3)[nH]2)C1 [cj-86, methyl ((1R,3S)-3-(((2S)-2-(5-(4′-(2-((2S)-1-((2S)-3-methoxy-2-((methoxycarbonyl)amino)butanoyl)-2-pyrrolidinyl)-1H-imidazol-5-yl)-4-biphenylyl)-1H-imidazol-2-yl)-1-pyrrolidinyl)carbonyl)cyclopentyl)carbamate]
pEC50: 9.00 to 12.00

CN(C)[C@@H](C(=O)N1CC(F)(F)C[C@H]1c1ncc(-c2ccc(-c3ccc(-c4cnc([C@@H]5CC(F)(F)CN5C(=O)[C@@H](c5ccccc5)N(C)C)[nH]4)cc3)cc2)[nH]1)c1ccccc1 [OL-8, (1R,1′R)-2,2′-(4,4′-biphenyldiylbis(1H-imidazole-4,2-diyl((2S)-4,4-difluoro-2,1-pyrrolidinediyl)))bis(N,N-dimethyl-2-oxo-1-phenylethanamine)]
pEC50: 9.00 to 12.00

COC(=O)N[C@H](C(=O)N1CCC[C@H]1c1ncc(-c2ccc(-c3ccc(-c4cnc([C@@H]5CCCN5C(=O)[C@@H](NC(=O)OC)C(C)C)[nH]4)cc3)cc2)[nH]1)C(C)C [Example 24-23]
pEC50: 9.00 to 12.00

COC(=O)Cc1[nH]c([C@@H]2CCCN2C(=O)[C@@H](NC(=O)OC)C(C)C)nc1-c1ccc(-c2ccc(-c3cnc([C@@H]4CCCN4C(=O)[C@@H](NC(=O)OC)C(C)C)[nH]3)cc2)cc1 [Example J14b.1, methyl (2-((2S)-1-(N-(methoxycarbonyl)-L-valyl)-2-pyrrolidinyl)-4-(4′-(2-((2S)-1-(N-(methoxycarbonyl)-L-valyl)-2-pyrrolidinyl)-1H-imidazol-4-yl)-4-biphenylyl)-1H-imidazol-5-yl)acetate]
pEC50: 9.00 to 12.00

COC(=O)N[C@@H](C(=O)N1CCC[C@H]1c1ncc(-c2cnc(-c3cnc(-c4cnc([C@@H]5CCCN5C(=O)[C@H](NC(=O)OC)c5ccccc5)[nH]4)cn3)cn2)[nH]1)c1ccccc1 [Example 153c-6, dimethyl (2,2′-bipyrazine-5,5′-diylbis(1H-imidazole-5,2-diyl(2S)-2,1-pyrrolidinediyl((1R)-2-oxo-1-phenyl-2,1-ethanediyl)))biscarbamate]
pEC50: 7.00 to 9.00

CN(C)[C@H](Cc1ccccc1)C(=O)N1CCC[C@H]1c1ncc(-c2ccc(-c3ccc(-c4cnc([C@@H]5CCCN5C(=O)[C@@H](Cc5ccccc5)N(C)C)[nH]4)cc3)cc2)[nH]1 [cj-147, (2R,2′R)-1,1′-(4,4′-biphenyldiylbis(1H-imidazole-5,2-diyl(2S)-2,1-pyrrolidinediyl))bis(N,N-dimethyl-1-oxo-3-phenyl-2-propanamine)]
pEC50: 7.00 to 9.00

O=C1CN(C(C(=O)N2CCC[C@H]2c2ncc(-c3ccc(-c4ccc(-c5c[nH]c([C@@H]6CCCN6C(=O)[C@H]6CCCO6)n5)cc4)cc3)[nH]2)c2ccccc2)CCN1 (stereo partly drawn) [Example 103-8, 4-(2-oxo-1-phenyl-2-((2S)-2-(5-(4′-(2-((2S)-1-((2R)-tetrahydro-2-furanylcarbonyl)-2-pyrrolidinyl)-1H-imidazol-4-yl)-4-biphenylyl)-1H-imidazol-2-yl)-1-pyrrolidinyl)ethyl)-2-piperazinone]
pEC50: 9.00 to 12.00

CCN(CC)[C@@H](C(=O)N1CCC[C@H]1c1ncc(-c2ccc(-c3ccc(-c4cnc([C@@H]5CCCN5C(=O)[C@@H](NC(=O)OC)C(C)C)[nH]4)cc3)cc2)[nH]1)c1ccccc1 [Example M58, methyl ((1S)-1-(((2S)-2-(5-(4′-(2-((2S)-1-((2R)-2-(diethylamino)-2-phenylacetyl)-2-pyrrolidinyl)-1H-imidazol-5-yl)-4-biphenylyl)-1H-imidazol-2-yl)-1-pyrrolidinyl)carbonyl)-2-methylpropyl)carbamate]
pEC50: 7.00 to 9.00

COC(=O)N[C@@H](C(=O)N1CC2(CC2)C[C@H]1c1nc(-c2ccc(-c3ccc(-c4c[nH]c([C@@H]5CC6(CC6)CN5C(=O)[C@H](NC(=O)OC)C(C)C)n4)cc3)cc2)c[nH]1)C(C)C [Example M149, methyl ((1R)-1-(((6S)-6-(4-(4′-(2-((6S)-5-((2R)-2-((methoxycarbonyl)amino)-3-methylbutanoyl)-5-azaspiro[2.4]hept-6-yl)-1H-imidazol-4-yl)-4-biphenylyl)-1H-imidazol-2-yl)-5-azaspiro[2.4]hept-5-yl)carbonyl)-2-methylpropyl)carbamate]
pEC50: 7.00 to 9.00
